# Target: T1, CDK2/Cyclin E complex (Homo sapiens, UniProt P24941)
# T1 construct: purchased Eurofins 14-475
# Assay: CDK2/Cyclin E fluorescence-based microfluidic mobility shift assay (CDK2 Biochemical Caliper Assay)
# Conditions: read-out: Biochemical CDK2/CyclinE Caliper IC50
# Method in brief: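 Microfluidic mobility-shift readout after EDTA termination measured phosphorylation of fluorescent FL Peptide 18 (1.5 uM final) in a 20 hr room-temperature reaction. Compounds were tested at 11 concentrations (3-fold).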
row,IC50,Compound
1,1 to 100 µM,"CNS(=O)(=O)N[C@@H]1CC[C@H](c2cc(NC(=O)Cc3cc(C)no3)n[nH]2)C1 (single isomer, unassigned) [Example 145]"
2,0.25 to 1 µM,COCc1cc(C(=O)Nc2cc([C@H]3C[C@@H](COc4cn[nH]c4C4(C)CC4)C3)[nH]n2)n(C)n1 [Example 645]
3,1 to 100 µM,O=c1cc(Nc2cc(C3CCCC3)[nH]n2)c2ncccc2[nH]1 [Example 873]
4,0.25 to 1 µM,"COCc1cc(C(=O)Nc2cc([C@@H]3CC[C@H](Oc4cccnc4C)C3)[nH]n2)n(C)n1 (single isomer, unassigned) [Example 386]"
5,≤ 0.1 µM,CC1(NC(=O)O[C@@H]2CO[C@H](c3cc(Nc4nccn5nc(COC(F)(F)F)cc45)n[nH]3)C2)CC1 [Example 922]
6,1 to 100 µM,Cc1cnnc(Nc2cc(C3CCCC3)[nH]n2)c1C(=O)O [Example 856]
7,≤ 0.1 µM,Cn1nc(OCC(F)(F)F)cc1C(=O)Nc1cc([C@@H]2C[C@H](OC(=O)NC34CC(C3)C4)CO2)[nH]n1 [Example 908]
8,1 to 100 µM,Cc1cc(CC(=O)Nc2cc(-c3ccccc3)[nH]n2)on1 [Example 62]
9,1 to 100 µM,"COCc1cc(C(=O)Nc2cc([C@H]3CC[C@@H](Oc4ccccc4)C3)[nH]n2)n(C)n1 (single isomer, unassigned) [Example 364]"
10,1 to 100 µM,"Cc1cc(CC(=O)Nc2cc([C@H]3CC[C@@H](NC(=O)CC(C)C)C3)[nH]n2)on1 (single isomer, unassigned) [Example 129]"
11,≤ 0.1 µM,COCc1cc2c(Nc3cc([C@@H]4C[C@H](OC(=O)N[C@@H](C)C5CC5)CO4)[nH]n3)nccn2n1 [Example 766]
12,≤ 0.1 µM,COCc1cc2c(Nc3cc([C@H]4C[C@@H](OC(=O)N[C@H](C)C(F)F)CO4)[nH]n3)nccn2n1 [Example 752]
13,≤ 0.1 µM,"COCc1cc(C(=O)Nc2cc([C@@H]3CC[C@H](Oc4nscc4C4CC4)C3)[nH]n2)n(C)n1 (single isomer, unassigned) [Example 413]"
14,≤ 0.1 µM,"CC(C)NC(=O)O[C@@H]1CC[C@H](c2cc(Nc3cncc(OCCO)n3)n[nH]2)C1 (single isomer, unassigned) [Example 563]"
15,0.1 to 0.25 µM,COCc1cc2c(Nc3cc([C@H]4C[C@@H](OC(=O)N5CC6CC(C6)C5)CO4)[nH]n3)nccn2n1 [Example 733]
16,0.25 to 1 µM,"Cc1cc(CC(=O)Nc2cc([C@@H]3CC[C@H](NC(=O)[C@@H](O)C(C)C)C3)[nH]n2)on1 (single isomer, unassigned) [Example 483]"
17,≤ 0.1 µM,"CC1(C)NC(=O)c2ccc(Nc3cc([C@H]4CC[C@@H](Oc5cccnc5)C4)[nH]n3)cc21 (single isomer, unassigned) [Example 565]"
18,1 to 100 µM,c1cc2c(nc1Nc1cc(C3CCCC3)[nH]n1)CCOC2 [Example 867]
19,≤ 0.1 µM,CC(C)NC(=O)O[C@H]1CO[C@@H](c2cc(Nc3nccn4nc(CN5CCC5)cc34)n[nH]2)C1 [Example 673]
20,≤ 0.1 µM,CC(C)NC(=O)O[C@H]1CO[C@@H](c2cc(Nc3nccn4nc(CN5CCCC5)cc34)n[nH]2)C1 [Example 676]
21,≤ 0.1 µM,COCc1cc2c(Nc3cc([C@@H]4C[C@H](OC(=O)NC56CC(C5)C6)CO4)[nH]n3)nccn2n1 [Example 767]
22,≤ 0.1 µM,COCc1cc2c(Nc3cc([C@H]4C[C@@H](OC(=O)NC56CCC(CC5)OC6)CO4)[nH]n3)nccn2n1 [Example 716]
23,≤ 0.1 µM,COCc1cc2c(Nc3cc([C@H]4C[C@@H](OC(=O)N[C@H](C)C5CC5)CO4)[nH]n3)nccn2n1 [Example 655]
24,0.25 to 1 µM,"COCc1nc2cc(Nc3cc([C@H]4CC[C@@H](OC(=O)NC(C)C)C4)[nH]n3)ncc2s1 (single isomer, unassigned) [Example 111]"

row,IC50,Compound
1,1 to 100 µM,"COCc1cc(C(=O)Nc2cc([C@@H]3CC[C@H](c4ccc(C)[nH]c4=O)C3)[nH]n2)n(C)n1 (single isomer, unassigned) [Example 543]"
2,≤ 0.1 µM,CC1(NC(=O)O[C@H]2CO[C@@H](c3cc(Nc4nccn5nc(COC(F)(F)F)cc45)n[nH]3)C2)CC1 [Example 897]
3,≤ 0.1 µM,COCc1cc2c(Nc3cc([C@@H]4C[C@H](Oc5nnccc5C(C)C)CO4)[nH]n3)nccn2n1 [Example 497]
4,0.1 to 0.25 µM,COCc1cc2c(Nc3cc([C@H]4C[C@@H](OC(=O)N[C@@H](C)C5COC5)CO4)[nH]n3)nccn2n1 [Example 686]
5,1 to 100 µM,Cc1cc(CC(=O)Nc2cn(C3CCCC3)cn2)on1 [Example 60]
6,≤ 0.1 µM,"COCc1cc(C(=O)Nc2cc([C@H]3CC[C@@H](Oc4nnccc4C4CC4)C3)[nH]n2)n(C)n1 (single isomer, unassigned) [Example 470]"
7,0.25 to 1 µM,COCc1cc(C(=O)Nc2cc([C@@H]3CC[C@H](Oc4cn[nH]c4C(C)C)C3)[nH]n2)n(C)n1 [Example 628]
8,≤ 0.1 µM,COCc1cc2c(Nc3cc([C@H]4C[C@@H](OC(=O)N[C@@H](C)C(C)C)CO4)[nH]n3)nccn2n1 [Example 665]
9,0.1 to 0.25 µM,"COCc1nc2cc(Nc3cc([C@@H]4CC[C@H](OC(=O)NC(C)C)C4)[nH]n3)ncc2s1 (single isomer, unassigned) [Example 112]"
10,≤ 0.1 µM,COCc1cc2c(Nc3cc([C@H]4C[C@@H](OC(=O)NC5(C)COC5)CO4)[nH]n3)nccn2n1 [Example 700]
11,≤ 0.1 µM,COC12CC(NC(=O)O[C@@H]3CO[C@H](c4cc(NC(=O)c5cc(COC(F)(F)F)nn5C)n[nH]4)C3)(C1)C2 [Example 911]
12,1 to 100 µM,"Cc1cc(CC(=O)Nc2cc([C@H]3CC[C@H](CC(=O)O)C3)[nH]n2)on1 (single isomer, unassigned) [Example 343]"
13,1 to 100 µM,"COCc1cc(C(=O)Nc2cc([C@H]3CC[C@](C)(CC(=O)NC(C)C)C3)[nH]n2)n(C)n1 (single isomer, unassigned) [Example 448]"
14,≤ 0.1 µM,COCc1cc(C(=O)Nc2cc([C@H]3C[C@@H](Oc4nnccc4C(C)C)CO3)[nH]n2)n(C)n1 [Example 458]
15,≤ 0.1 µM,CCC1(NC(=O)O[C@H]2CO[C@@H](c3cc(Nc4nccn5nc(COC)cc45)n[nH]3)C2)CC1 [Example 705]
16,≤ 0.1 µM,c1cncc(OC[C@H]2C[C@@H](c3cc(Nc4nccn5nccc45)n[nH]3)C2)c1 [Example 536]
17,1 to 100 µM,"COCc1cc(C(=O)Nc2cc([C@@H]3CC[C@H](c4ccc(C)cn4)C3)[nH]n2)n(C)n1 (single isomer, unassigned) [Example 598]"
18,1 to 100 µM,"COCc1cc(C(=O)Nc2cc([C@H]3CC[C@H](Cc4ncc(C)s4)C3)[nH]n2)n(C)n1 (single isomer, unassigned) [Example 557]"
19,1 to 100 µM,Cc1cc(CC(=O)Nc2cc(N3CC[C@H]3COC(=O)NC3(C)CC3)[nH]n2)on1 [Example 52]
20,≤ 0.1 µM,COCc1cn2c(Nc3cc([C@@H]4C[C@H](OC(=O)NC5(C)CC5)CO4)[nH]n3)nccc2n1 [Example 921]
21,≤ 0.1 µM,"Cc1cc(CC(=O)Nc2cc([C@H]3CC[C@@H](Oc4nscc4C4CC4)C3)[nH]n2)on1 (single isomer, unassigned) [Example 127]"
22,0.25 to 1 µM,Cn1nc(CO)cc1C(=O)Nc1cc([C@H]2C[C@@H](OC(=O)NC3(C)CC3)CO2)[nH]n1 [Example 902]
23,1 to 100 µM,"COCc1cc2c(Nc3cc([C@H]4CC[C@@H](Oc5cccnc5C)C4)[nH]n3)nccn2n1 (single isomer, unassigned) [Example 511]"
24,1 to 100 µM,CCc1c(C)nc2ncnn2c1Nc1cc(C2CCCC2)[nH]n1 [Example 875]

# Source: patent publication US20240190855A1 (Relay Therapeutics, Inc., priority 2021, published 2024)
